Assay results: patent US20080051457A1, “Optically Active Phthalamide Derivative, Agricultural or Horticultural Insecticide, and Method of Using the Same” (priority 2004, published 2008)

Experiment: logP (pH2.3), physical properties of Tables 1 to 3
Type: physicochemical
Conditions: Table 1
Excerpt: However, the present invention is not limited to these compounds. In the tables, the term “physical properties” means a melting point or logp. The symbol “Me” represents a methyl group, “Et” represents an ethyl group, “Pr” represents a propyl group, “-n” represents normal, and “-i” represents iso.

SMILES	Physical properties: logP
Cc1c(NC(=O)c2cccc(I)c2C(=O)N[C@@H](C)CS(C)(=O)=O)ccc(C(F)(F)C(F)(F)F)c1F [Compound 1-137]	2.97
CSC[C@H](C)NC(=O)c1c(I)cccc1C(=O)Nc1ccc(OC(F)(F)F)c(F)c1C [Compound 1-138]	3.59
Cc1c(NC(=O)c2cccc(I)c2C(=O)N[C@@H](C)CS(C)(=O)=O)ccc(OC(F)(F)F)c1F [Compound 1-140]	2.60
CSC[C@H](C)NC(=O)c1c(I)cccc1C(=O)Nc1ccc(C(F)(C(F)(F)F)C(F)(F)F)c(F)c1C [Compound 1-141]	4.41
Cc1c(NC(=O)c2cccc(I)c2C(=O)N[C@@H](C)C[S+](C)[O-])ccc(C(F)(C(F)(F)F)C(F)(F)F)c1F (stereo partly drawn) [Compound 1-142]	2.78
Cc1c(NC(=O)c2cccc(I)c2C(=O)N[C@@H](C)CS(C)(=O)=O)ccc(C(F)(C(F)(F)F)C(F)(F)F)c1F [Compound 1-143]	3.27
CSC[C@H](C)NC(=O)c1c(I)cccc1C(=O)Nc1ccc(C(F)(F)C(F)(F)F)c(Cl)c1C [Compound 1-144]	4.20
CSC[C@H](C)NC(=O)c1c(I)cccc1C(=O)Nc1ccc(Br)c(F)c1C [Compound 1-147]	3.30
Cc1c(NC(=O)c2cccc(I)c2C(=O)N[C@@H](C)CS(C)(=O)=O)ccc(Br)c1F [Compound 1-149]	2.29
CSC[C@H](C)NC(=O)c1c(I)cccc1C(=O)Nc1ccc(I)c(F)c1C [Compound 1-150]	3.42
Cc1c(NC(=O)c2cccc(I)c2C(=O)N[C@@H](C)CS(C)(=O)=O)ccc(I)c1F [Compound 1-152]	2.40
CSC[C@H](C)NC(=O)c1c(I)cccc1C(=O)Nc1ccc(Br)c(Br)c1C [Compound 1-153]	3.55
Cc1c(NC(=O)c2cccc(I)c2C(=O)N[C@@H](C)CS(C)(=O)=O)ccc(Br)c1Br [Compound 1-155]	2.49
CSC[C@H](C)NC(=O)c1c(I)cccc1C(=O)Nc1ccc(C(F)(F)F)c(F)c1C [Compound 1-156]	3.58
CCSC[C@H](C)NC(=O)c1c(I)cccc1C(=O)Nc1ccc(OC(F)(F)F)c(Cl)c1Cl [Compound 1-159]	4.41
CCS(=O)(=O)C[C@H](C)NC(=O)c1c(I)cccc1C(=O)Nc1ccc(OC(F)(F)F)c(Cl)c1Cl [Compound 1-161]	3.18
CCSC[C@H](C)NC(=O)c1c(I)cccc1C(=O)Nc1ccc(OC(F)(F)F)c(Br)c1Cl [Compound 1-162]	4.42
CCS(=O)(=O)C[C@H](C)NC(=O)c1c(I)cccc1C(=O)Nc1ccc(OC(F)(F)F)c(Br)c1Cl [Compound 1-164]	3.19
CSC[C@H](C)NC(=O)c1c(Br)cccc1C(=O)Nc1ccc(C(F)(F)C(F)(F)F)c(F)c1C [Compound 1-165]	3.93

SMILES	Physical properties: logP
Cc1c(NC(=O)c2cccc(Br)c2C(=O)N[C@@H](C)C[S+](C)[O-])ccc(C(F)(F)C(F)(F)F)c1F (stereo partly drawn) [Compound 1-166]	2.42
Cc1c(NC(=O)c2cccc(Br)c2C(=O)N[C@@H](C)CS(C)(=O)=O)ccc(C(F)(F)C(F)(F)F)c1F [Compound 1-167]	2.86
CSC[C@H](C)NC(=O)c1c(Br)cccc1C(=O)Nc1ccc(C(F)(C(F)(F)F)C(F)(F)F)c(F)c1C [Compound 1-168]	4.31
Cc1c(NC(=O)c2cccc(Br)c2C(=O)N[C@@H](C)C[S+](C)[O-])ccc(C(F)(C(F)(F)F)C(F)(F)F)c1F (stereo partly drawn) [Compound 1-169]	2.72
Cc1c(NC(=O)c2cccc(Br)c2C(=O)N[C@@H](C)CS(C)(=O)=O)ccc(C(F)(C(F)(F)F)C(F)(F)F)c1F [Compound 1-170]	3.21
CCSC[C@H](C)NC(=O)c1c(Br)cccc1C(=O)Nc1ccc(C(F)(F)C(F)(F)F)c(F)c1C [Compound 1-171]	4.26
CC[S+]([O-])C[C@H](C)NC(=O)c1c(Br)cccc1C(=O)Nc1ccc(C(F)(F)C(F)(F)F)c(F)c1C (stereo partly drawn) [Compound 1-172]	2.59
CCS(=O)(=O)C[C@H](C)NC(=O)c1c(Br)cccc1C(=O)Nc1ccc(C(F)(F)C(F)(F)F)c(F)c1C [Compound 1-173]	3.06
CCSC[C@H](C)NC(=O)c1c(Br)cccc1C(=O)Nc1ccc(C(F)(F)C(F)(F)F)c(Cl)c1C [Compound 1-174]	4.43
CCS(=O)(=O)C[C@H](C)NC(=O)c1c(Br)cccc1C(=O)Nc1ccc(C(F)(F)C(F)(F)F)c(Cl)c1C [Compound 1-176]	3.19
CCSC[C@H](C)NC(=O)c1c(Br)cccc1C(=O)Nc1ccc(Br)c(F)c1C [Compound 1-177]	3.54
CCS(=O)(=O)C[C@H](C)NC(=O)c1c(Br)cccc1C(=O)Nc1ccc(Br)c(F)c1C [Compound 1-179]	2.39
CCSC[C@H](C)NC(=O)c1c(Br)cccc1C(=O)Nc1ccc(C(F)(F)F)c(F)c1C [Compound 1-180]	3.80
CCS(=O)(=O)C[C@H](C)NC(=O)c1c(Br)cccc1C(=O)Nc1ccc(C(F)(F)F)c(F)c1C [Compound 1-182]	2.66
CCSC[C@H](C)NC(=O)c1c(Br)cccc1C(=O)Nc1ccc(I)c(F)c1C [Compound 1-183]	3.66
CCS(=O)(=O)C[C@H](C)NC(=O)c1c(Br)cccc1C(=O)Nc1ccc(I)c(F)c1C [Compound 1-185]	2.51
CCSC[C@H](C)NC(=O)c1c(Br)cccc1C(=O)Nc1ccc(Br)c(Br)c1C [Compound 1-186]	3.78
CCS(=O)(=O)C[C@H](C)NC(=O)c1c(Br)cccc1C(=O)Nc1ccc(Br)c(Br)c1C [Compound 1-188]	2.59
CCSC[C@H](C)NC(=O)c1c(Br)cccc1C(=O)Nc1ccc(OC(F)(F)F)c(F)c1C [Compound 1-189]	3.81

SMILES	Physical properties: logP
CCS(=O)(=O)C[C@H](C)NC(=O)c1c(Br)cccc1C(=O)Nc1ccc(OC(F)(F)F)c(F)c1C [Compound 1-191]	2.69
CCSC[C@H](C)NC(=O)c1c(Br)cccc1C(=O)Nc1cc(F)c(OC(F)(F)F)cc1Cl [Compound 1-192]	4.16
CCS(=O)(=O)C[C@H](C)NC(=O)c1c(Br)cccc1C(=O)Nc1cc(F)c(OC(F)(F)F)cc1Cl [Compound 1-194]	2.96
CCSC[C@H](C)NC(=O)c1c(Br)cccc1C(=O)Nc1cc(F)c(OC(F)(F)F)cc1Br [Compound 1-195]	4.18
CCS(=O)(=O)C[C@H](C)NC(=O)c1c(Br)cccc1C(=O)Nc1cc(F)c(OC(F)(F)F)cc1Br [Compound 1-197]	2.99
CCSC[C@H](C)NC(=O)c1c(Br)cccc1C(=O)Nc1ccc(C(F)(C(F)(F)F)C(F)(F)F)c(F)c1C [Compound 1-198]	4.63
CC[S+]([O-])C[C@H](C)NC(=O)c1c(Br)cccc1C(=O)Nc1ccc(C(F)(C(F)(F)F)C(F)(F)F)c(F)c1C (stereo partly drawn) [Compound 1-199]	2.90
CCS(=O)(=O)C[C@H](C)NC(=O)c1c(Br)cccc1C(=O)Nc1ccc(C(F)(C(F)(F)F)C(F)(F)F)c(F)c1C [Compound 1-200]	3.39
CCSC[C@H](C)NC(=O)c1c(Cl)cccc1C(=O)Nc1ccc(C(F)(C(F)(F)F)C(F)(F)F)c(F)c1C [Compound 1-201]	4.54
CC[S+]([O-])C[C@H](C)NC(=O)c1c(Cl)cccc1C(=O)Nc1ccc(C(F)(C(F)(F)F)C(F)(F)F)c(F)c1C (stereo partly drawn) [Compound 1-202]	2.86
CCS(=O)(=O)C[C@H](C)NC(=O)c1c(Cl)cccc1C(=O)Nc1ccc(C(F)(C(F)(F)F)C(F)(F)F)c(F)c1C [Compound 1-203]	3.34
CSC[C@H](C)NC(=O)c1c(Cl)cccc1C(=O)Nc1ccc(C(F)(C(F)(F)F)C(F)(F)F)c(F)c1C [Compound 1-204]	4.23
Cc1c(NC(=O)c2cccc(Cl)c2C(=O)N[C@@H](C)C[S+](C)[O-])ccc(C(F)(C(F)(F)F)C(F)(F)F)c1F (stereo partly drawn) [Compound 1-205]	2.69
CCSC[C@H](C)NC(=O)c1c(Cl)cccc1C(=O)Nc1ccc(C(F)(F)C(F)(F)F)c(F)c1C [Compound 1-207]	4.21
CC[S+]([O-])C[C@H](C)NC(=O)c1c(Cl)cccc1C(=O)Nc1ccc(C(F)(F)C(F)(F)F)c(F)c1C (stereo partly drawn) [Compound 1-208]	2.56
CCS(=O)(=O)C[C@H](C)NC(=O)c1c(Cl)cccc1C(=O)Nc1ccc(C(F)(F)C(F)(F)F)c(F)c1C [Compound 1-209]	3.01
CCSC[C@H](C)NC(=O)c1c(Cl)cccc1C(=O)Nc1ccc(C(F)(F)C(F)(F)F)c(Cl)c1C [Compound 1-210]	4.37
CCS(=O)(=O)C[C@H](C)NC(=O)c1c(Cl)cccc1C(=O)Nc1ccc(C(F)(F)C(F)(F)F)c(Cl)c1C [Compound 1-212]	3.14
CSC[C@H](C)NC(=O)c1c(Cl)cccc1C(=O)Nc1ccc(C(F)(F)C(F)(F)F)c(F)c1C [Compound 1-213]	3.88
